In assay [1] the target is T1, human histone deacetylase.
T1 construct: The human histone deacetylase was partially purified from human T cell leukemia Jurkat cells
Nature of the assay: Test 1: Determination of Histone Deacetylase Inhibitor Activity. It counts as biochemical. The following applies: enzyme partially purified from human T cell leukemia Jurkat cells; [3H] acetyl-labeled histones; 25° C., 30 minutes; read-out: Test 1: HDAC inhibitory activity IC50. The method, then: Test 1: Determination of Histone Deacetylase Inhibitor Activity
The partial purification of human histone deacetylase, the preparation of [^3H] acetyl histones, and the assay for histone deacetylase activity were performed basically according to the method as proposed by Yoshida et al. as follows.
Partial Purification of Human Histone Deacetylase
The human histone deacetylase was partially purified from human T cell leukemia Jurkat cells. Jurkat cells (5×10^8 cells) were suspended in 40 mL of the HDA buffer consisting of 15 mM potassium phosphate, pH 7.5, 5% glycerol and 0.2 mM EDTA. After homogenization, nuclei were collected by centrifugation (35,000×g, 10 min) and homogenized in 20 mL of the same buffer supplemented with 1 M (NH4)2SO4. The viscous homogenate was sonicated and clarified by centrifugation (35,000×g, 10 min), and the deacetylase was precipitated by raising the concentration of (NH4)2SO4 to 3.5 M. The precipitated protein was dissolved in 10 mL of the HDA buffer and dialyzed against 4 liters of the same buffer. The dialyzate was then loaded onto a DEAE-cellulose (Whatman DE52) column (25×85 mm) equilibrated with the same buffer and eluted with 300 mL of a linear gradient (0-0.6 M) of NaCl. A single peak of histone deacetylase activity appeared between 0.3 and 0.4 M NaCl.
Preparation of [^3H] Acetyl Histone
To obtain [^3H] acetyl-labeled histone as the substrate for the histone deacetylase assay, 1×10^8 cells of Jurkat in 20 mL of RPMI-1640 medium (supplemented with 10% FBS, penicillin (50 units/mL) and streptomycin (50 μg/mL)) were incubated with 300 MBq [^3H] sodium acetate in the presence of 5 mM sodium butyrate for 30 minutes in 5% CO2-95% air atmosphere at 37° C. in a 75 cm^2 flask, harvested into a centrifuge tube (50 mL), collected by centrifugation at 1000 rpm for 10 minutes, and washed once with phosphate-buffered saline. The washed cells were suspended in 15 mL of ice-cold lysis buffer (10 mM Tris-HCl, 50 mM sodium bisulfite, 1% Triton X-100, 10 mM MgCl2, 8.6% sucrose, pH 6.5). After Dounce homogenization (30 stroke), the nuclei were collected by centrifugation at 1000 rpm for 10 minutes, washed 3 times with 15 mL of the lysis buffer, and once with 15 mL of ice-cooled washing buffer (10 mM Tris-HCl, 13 mM EDTA, pH 7.4) successively. The pellet was suspended in 6 mL of ice-cooled water using a mixer, and 68 μl of H2SO4 was added to the suspension to give a concentration of 0.4 N. After incubation at 4° C. for 1 hour, the suspension was centrifuged for 5 minutes at 15, 000 rpm, and the supernatant was taken and mixed with 60 mL of acetone. After overnight incubation at −20° C., the coagulated material was collected by microcentrifugation, air-dried, and stored at −80° C.
Assay for Histone Deacetylase Activity
For the standard assay, 10 μl of [^3H] acetyl-labeled histones were added to 90 μl of the enzyme fraction, and the mixture was incubated at 25° C. for 30 minutes. The reaction was stopped by addition of 10 μL of HCl. The released [^3H] acetic acid was extracted with 1 mL of ethyl acetate, and 0.9 mL of the solvent layer was taken into 10 mL of toluene scintillation solution for determination of radioactivity.

The subject of assay [2] is splenic cells of Lewis rats. Nature of the assay: Test 2: Determination of T-Cell Growth Inhibitor Activity (T lymphocyte blastogenesis test). The format is cell-based. To be noted: Rattus norvegicus, Concanavalin A added, 72 hours, AlamarBlue Assay, read-out: Test 2: T-cell growth inhibitory activity IC50. The method, then:
Test 2: Determination of T-Cell Growth Inhibitor Activity The T lymphocyte blastogenesis test was performed in microtiter plates with each well containing 1.5×10^5 splenic cells of Lewis rats in 0.1 mL RPMI-1640 medium supplemented with 10% fetal bovine serum (FBS), […] 2-mercaptoethanol, penicillin (100 units/mL) and streptomycin (100 μg/mL), to which Concanavalin A (1 μl/mL) was added. The cells were incubated at 37° C. in a humidified atmosphere of 5% CO2 for 72 hours. After the culture period, suppressive activities of the test compounds in T lymphocyte blastogenesis were quantified by AlamarBlue (trademark) Assay. The test samples were dissolved in DMSO and further diluted with RPMI-1640 medium and added to the culture. The activities of the test compounds were expressed as IC50.
In general terms: The colour change of resazurin is a common sign of viable cells or microbes.

Where a name gives a salt, the structure may show the parent alone. A value given as a limit tells only on which side of the number the result lay.

Turning to `O=C(/C=C/c1ccc(N[C@@H]2CCN(Cc3ccccc3)C2)nc1)NO` [Example 3, (2E)-3-(6-{[(3R)-1-Benzyl-3-pyrrolidinyl]amino}-3-pyridyl)-N-hydroxyacrylamide dihydrochloride], the values for the concentration for half-maximal inhibition (IC50) in assay [1] and in assay [2] were less than 10 nM and less than 25 nM, respectively.

For `O=C(/C=C/c1ccc(N[C@@H]2CCN(CC3CCCCC3)C2)nc1)NO` [Example 60, (2E)-3-(6-{[(3R) 1-(Cyclohexylmethyl)-3-pyrrolidinyl]amino}-3-pyridyl)-N-hydroxyacrylamide dihydrochloride], the IC50 (as a rule, the concentration at which inhibition is half-maximal) was less than 10 nM in assay [1] and less than 25 nM in assay [2].

With `O=C(/C=C/c1cnc(N[C@@H]2CCN(Cc3ccc(Cl)cc3)C2)cn1)NO` [Example 74, (2E)-3-(5-{[(3R)-1-(4-chlorobenzyl)-3-pyrrolidinyl]amino}-2-pyrazinyl)-N-hydroxyacrylamide dihydrochloride], the IC50 is less than 10 nM in assay [1] and less than 25 nM in assay [2].

As to `O=C(/C=C/c1cnc(N[C@@H]2CCCN(Cc3ccccc3)C2)cn1)NO` [Example 76, (2E)-3-(5-{[(3R)-1-Benzyl-3-piperidinyl]amino}-2-pyrazinyl)-N-hydroxyacrylamide dihydrochloride], the IC50 is less than 10 nM in assay [1] and less than 25 nM in assay [2].

For `O=C(/C=C/c1cnc(N[C@@H]2CCN(Cc3ccccc3)C2)cn1)NO` [Example 82, (2E)-3-(5-{[(3R)-1-Benzyl-3-pyrrolidinyl]amino}-2-pyrazinyl)-N-hydroxyacrylamide dihydrochloride], the concentration for half-maximal inhibition (IC50) is less than 10 nM in assay [1] and less than 25 nM in assay [2].

Regarding `O=C(/C=C/c1cnc(N[C@@H]2CCN(Cc3ccc(F)cc3)C2)cn1)NO` [Example 116, (2E)-3-(5-{[(3R)-1-(4-fluorobenzyl)-3-pyrrolidinyl]amino}-2-pyrazinyl)-N-hydroxyacrylamide dihydrochloride], the results for the IC50 in assay [1] and in assay [2] were less than 10 nM and less than 25 nM, respectively.

For the compound `O=C(/C=C/c1cnc(N[C@@H]2CCN(CCc3ccccc3)C2)cn1)NO` [Example 119, (2E)-N-hydroxy-3-(5-{[(3R)-1-(2-phenylethyl)-3-pyrrolidinyl]amino}-2-pyrazinyl)acrylamide dihydrochloride], the half-inhibitory concentration (IC50) in assay [1] was less than 10 nM; in assay [2] it was less than 25 nM.

As to `O=C(/C=C/c1cnc(N[C@@H]2CCN(C3CCCCC3)C2)cn1)NO` [Example 123, (2E)-3-(5-{[(3R)-1-cyclohexyl-3-pyrrolidinyl]amino}-2-pyrazinyl)-N-hydroxyacrylamide dihydrochloride], the IC50 in assay [1] is less than 10 nM; in assay [2], less than 25 nM.

Turning to `O=C(/C=C/c1cnc(N[C@@H]2CCN(C(=O)C3CCCCC3)C2)c(Cl)c1)NO` [Example 174, (2E)-3-(5-chloro-6-{[(3R)-1-(cyclohexylcarbonyl)-3-pyrrolidinyl]amino}-3-pyridinyl)-N-hydroxyacrylamide hydrochloride], the half-maximal inhibitory concentration (IC50) in assay [1] was less than 10 nM; in assay [2] it was less than 25 nM.

Take `CC1=C(CN2CC[C@@H](Nc3ccc(/C=C/C(=O)NO)cn3)C2)C(C)(C)CCC1` [Example 189, (2E)-N-hydroxy-3-[6-({(3R)-1-[(2,6,6-trimethyl-1-cyclohexen-1-yl)methyl]-3-pyrrolidinyl}amino)-3-pyridinyl]acrylamide dihydrochloride]: the half-inhibitory concentration (IC50) in assay [1] was less than 10 nM; in assay [2], less than 25 nM.
